In one experiment the target is KRAS G12D (Homo sapiens, UniProt P01116, G12D). The experiment can be described thus: GDP-GTP exchange assay (bodipy-GDP/GppNHp, SOS1), KRAS G12D. The experiment is classed as biochemical. The conditions noted are these: 2.5 nM bodipy-loaded KRAS G12D, 4 h pre-incubation, 2 h reaction with GppNHp and SOS1; for certain compounds the most potent isomer is quoted; read-out: KRAS_G12D exchange assay IC50. As to the method: (§1) The inhibitor potency of the exemplified compounds was determined in a fluorescence based guanine nucleotide exchange assay, which measures the exchange of bodipy-GDP (fluorescently labeled GDP) for GppNHp (Non-hydrolyzable GTP analog) to generate the active state of KRAS in the presence of SOS1 (guanine nucleotide exchange factor). Inhibitors were serially diluted in DMSO and a volume of 0.1 μL was transferred to the wells of a black low volume 384-well plate. 5 µL/well volume of bodipy-loaded KRAS G12D diluted to 2.5 nM in assay buffer (25 mM Hepes pH 7.5, 50 mM NaCl, 10 mM MgCl2 and 0.01% Brij-35) was added to the plate and pre-incubated with inhibitor for 4 h at r.t. Appropriate controls (enzyme with no inhibitor or with a G12D inhibitor) were included on the plate. The exchange was initiated by the addition of a 5 μL/well volume containing 1 mM GppNHp and 300 nM SOS1 in assay buffer. The 10 μL/well reaction concentration of the bodipy-loaded KRAS G12D, GppNHp, and SOS1 were 2.5 nM, 500 μM, and 150 nM, respectively. The reaction plates were incubated at r.t. for 2 h, a time estimated for complete GDP-GTP exchange in the absence of inhibitor. For the KRAS G12V mutant, similar guanine nucleotide exchange assays were used with 2.5 nM as final concentration for the bodipy loaded KRAS proteins and 3 h incubation after adding GppNHp-SOS1 mixture. A cyclic peptide described to selectively bind G12D mutant (Sakamoto et al., BBRC 484.3 (2017), 605-611) or internal compounds with confirmed binding were used as positive controls in the assay plates. Fluorescence intensities were measured on a PheraStar plate reader instrument (BMG Labtech) with excitation at 485 nm and emission at 520 nm.
Chain of KRAS G12D (P01116 1-188 isoform P01116-2 G12D): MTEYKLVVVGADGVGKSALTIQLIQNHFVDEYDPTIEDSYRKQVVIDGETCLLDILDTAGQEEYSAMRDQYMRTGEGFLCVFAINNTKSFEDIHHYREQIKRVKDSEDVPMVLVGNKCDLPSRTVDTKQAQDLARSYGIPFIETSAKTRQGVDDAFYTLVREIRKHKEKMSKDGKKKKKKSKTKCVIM
(§2) Either GraphPad prism or Genedata Screener SmartFit was used to analyze the data. The IC50 values were derived by fitting the data to a four parameter logistic equation producing a sigmoidal dose-response curve with a variable Hill coefficient.
(§3) The symbol “†” indicates IC50≤100 nM, “††” indicates IC50>100 nM but ≤1 μM; and “†††” indicates IC50 is >1 μM but ≤5 μM, “††††” indicates IC50 is >5 µM but ≤10 μM. “NA” indicates IC50 not available.

The next experiment has as its target KRAS G12V (Homo sapiens, UniProt P01116, G12V). As to the kind of experiment: GDP-GTP exchange assay (bodipy-GDP/GppNHp, SOS1), KRAS G12V. The experiment is classed as biochemical. The conditions noted are these: 2.5 nM bodipy-loaded KRAS G12V, 3 h incubation after adding GppNHp-SOS1; for certain compounds the most potent isomer is quoted; read-out: KRAS_G12V exchange assay IC50. As to the method:
as §1, §2, §3

Where only a bound is given, the exact number is not on record here.

Among the data in patent US20240368156A1, “2-AZABICYCLO[2.2.1]HEPTANE KRAS INHIBITORS” (INCYTE CORPORATION, priority 2023, published 2024) are IC50 values, retold here.

Chain of KRAS G12V (P01116 1-188 isoform P01116-2 G12V): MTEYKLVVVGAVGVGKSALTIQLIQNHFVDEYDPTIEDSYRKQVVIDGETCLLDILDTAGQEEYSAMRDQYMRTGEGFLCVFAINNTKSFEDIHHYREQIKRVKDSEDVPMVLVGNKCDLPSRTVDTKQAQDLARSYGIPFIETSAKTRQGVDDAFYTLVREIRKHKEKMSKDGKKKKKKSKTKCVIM

With `Cc1nc2c(F)c(-c3cccc(Cl)c3Cl)c(CCC#N)cc2c2c1cc([C@H]1[C@H]3C[C@H](C[C@@H]3Oc3ccncc3)N1C(=O)C1CC1)n2[C@H]1[C@H]2CN[C@@H]1C2` (atropisomer, axis not shown) [Example 31, 3-((R)-1-((1R,4R,5S)-2-azabicyclo[2.1.1]hexan-5-yl)-2-((1R,3R,4R,5S)-2-(cyclopropanecarbonyl)-5-(pyridin-4-yloxy)-2-azabicyclo[2.2.1]heptan-3-yl)-7-(2,3-dichlorophenyl)-6-fluoro-4-methyl-1H-pyrrolo[3,2-c]quinolin-8-yl)propanenitrile], the IC50 at KRAS G12D and at KRAS G12V was at most 100 nM throughout.
For `C[C@@H](O)c1nc2c(F)c(-c3cccc(Cl)c3Cl)c(CCC#N)cc2c2c1cc([C@H]1[C@H]3C[C@H](C[C@@H]3F)N1C(=O)C1(F)CC1)n2[C@H]1[C@H]2CN[C@@H]1C2` (atropisomer, axis not shown) [Example 32, 3-((R)-1-((1R,4R,5S)-2-azabicyclo[2.1.1]hexan-5-yl)-7-(2,3-dichlorophenyl)-6-fluoro-2-((1R,3R,4R,5S)-5-fluoro-2-(1-fluorocyclopropane-1-carbonyl)-2-azabicyclo[2.2.1]heptan-3-yl)-4-((R)-1-hydroxyethyl)-1H-pyrrolo[3,2-c]quinolin-8-yl)propanenitrile], the IC50 on KRAS G12D and at KRAS G12V was at most 100 nM each time.
As to `C[C@@H](O)c1nc2c(F)c(-c3cccc(Cl)c3Cl)c(CCC#N)cc2c2c1cc([C@H]1[C@H]3C[C@H](C[C@H]3Cl)N1C(=O)C1(F)CC1)n2[C@H]1[C@H]2CN[C@@H]1C2` (atropisomer, axis not shown) [Example 33, 3-((R)-1-((1R,4R,5S)-2-azabicyclo[2.1.1]hexan-5-yl)-2-((1R,3R,4R,5R)-5-chloro-2-(1-fluorocyclopropane-1-carbonyl)-2-azabicyclo[2.2.1]heptan-3-yl)-7-(2,3-dichlorophenyl)-6-fluoro-4-((R)-1-hydroxyethyl)-1H-pyrrolo[3,2-c]quinolin-8-yl)propanenitrile], the IC50 on KRAS G12D and at KRAS G12V was at most 100 nM in each case.
As for `CO[C@H]1C[C@H]2C[C@@H]1[C@H](c1cc3c(C)nc4c(F)c(-c5cccc(Cl)c5Cl)c(CCC#N)cc4c3n1[C@H]1[C@H]3CN[C@@H]1C3)N2C(=O)C1CC1` (atropisomer, axis not shown; (Ra)) [Example 1, 3-((Ra)-1-((1R,4R,5S)-2-Azabicyclo[2.1.1]hexan-5-yl)-2-((1R,3R,4R,5S)-2-(cyclopropanecarbonyl)-5-methoxy-2-azabicyclo[2.2.1]heptan-3-yl)-7-(2,3-dichlorophenyl)-6-fluoro-4-methyl-1H-pyrrolo[3,2-c]quinolin-8-yl)propanenitrile], on KRAS G12D, the half-inhibitory concentration (IC50) (in general, the concentration at which inhibition is half-maximal) is at most 100 nM.
With `Cc1nc2c(F)c(-c3cccc(Cl)c3Cl)c(CCC#N)cc2c2c1cc([C@H]1[C@H]3C[C@H](C[C@@H]3F)N1C(=O)C1CC1)n2[C@H]1[C@H]2CN[C@@H]1C2` (atropisomer, axis not shown; (Ra)) [Example 2, 3-((Ra)-1-((1R,4R,5S)-2-Azabicyclo[2.1.1]hexan-5-yl)-2-((1R,3R,4R,5S)-2-(cyclopropanecarbonyl)-5-fluoro-2-azabicyclo[2.2.1]heptan-3-yl)-7-(2,3-dichlorophenyl)-6-fluoro-4-methyl-1H-pyrrolo[3,2-c]quinolin-8-yl)propanenitrile], the IC50 on KRAS G12D and on KRAS G12V was at most 100 nM throughout.
For `Cc1nc2c(F)c(-c3cccc(Cl)c3Cl)c(CCC#N)cc2c2c1cc([C@H]1[C@H]3C[C@H]([C@@H]4C[C@@H]43)N1C(=O)C1CC1)n2[C@H]1[C@H]2CN[C@@H]1C2` (atropisomer, axis not shown; (Ra)) [Example 3, 3-((Ra)-1-((1R,4R,5S)-2-Azabicyclo[2.1.1]hexan-5-yl)-2-((1S,2S,4R,5R,7R)-6-(cyclopropanecarbonyl)-6-azatricyclo[3.2.1.0^2,4]octan-7-yl)-7-(2,3-dichlorophenyl)-6-fluoro-4-methyl-1H-pyrrolo[3,2-c]quinolin-8-yl)propanenitrile], the concentration for half-maximal inhibition (IC50) at KRAS G12D and on KRAS G12V was at most 100 nM in each case.
Take `[2H]C([2H])([2H])O[C@H]1C[C@H]2C[C@@H]1[C@H](c1cc3c(C)nc4c(F)c(-c5cccc(Cl)c5Cl)c(CCC#N)cc4c3n1[C@H]1[C@H]3CN[C@@H]1C3)N2C(=O)C1CC1` (atropisomer, axis not shown; (Ra)) [Example 4, 3-((Ra)-1-((1R,4R,5S)-2-Azabicyclo[2.1.1]hexan-5-yl)-2-((1R,3R,4R,5S)-2-(cyclopropanecarbonyl)-5-(methoxy-d3)-2-azabicyclo[2.2.1]heptan-3-yl)-7-(2,3-dichlorophenyl)-6-fluoro-4-methyl-1H-pyrrolo[3,2-c]quinolin-8-yl)propanenitrile]: the IC50 at KRAS G12D and on KRAS G12V was at most 100 nM in each case.
Regarding `Cc1nc2c(F)c(-c3cccc(Cl)c3Cl)c(CCC#N)cc2c2c1cc([C@H]1[C@H]3C[C@H](C[C@@H]3Oc3cccnc3)N1C(=O)C1CC1)n2[C@H]1[C@H]2CN[C@@H]1C2` (atropisomer, axis not shown; (Ra)) [Example 5, 3-((Ra)-1-((1R,4R,5S)-2-Azabicyclo[2.1.1]hexan-5-yl)-2-((1R,3R,4R,5S)-2-(cyclopropanecarbonyl)-5-(pyridin-3-yloxy)-2-azabicyclo[2.2.1]heptan-3-yl)-7-(2,3-dichlorophenyl)-6-fluoro-4-methyl-1H-pyrrolo[3,2-c]quinolin-8-yl)propanenitrile], the half-maximal inhibitory concentration (IC50) at KRAS G12D and at KRAS G12V was at most 100 nM each time.
Turning to `Cc1nc2c(F)c(-c3cccc(Cl)c3Cl)c(CCC#N)cc2c2c1cc([C@H]1[C@H]3C[C@H](C[C@@H]3OCc3ccccc3)N1C(=O)C1CC1)n2[C@H]1[C@H]2CN[C@@H]1C2` (atropisomer, axis not shown; (Ra)) [Example 6, 3-((Ra)-2-((1R,3R,4R,5S)-5-(Benzyloxy)-2-(cyclopropanecarbonyl)-2-azabicyclo[2.2.1]heptan-3-yl)-1-((1R,4R,5S)-2-azabicyclo[2.1.1]hexan-5-yl)-7-(2,3-dichlorophenyl)-6-fluoro-4-methyl-1H-pyrrolo[3,2-c]quinolin-8-yl)propanenitrile], the IC50 at KRAS G12D and at KRAS G12V was at most 100 nM throughout.
With `Cc1nc2c(F)c(-c3cccc(Cl)c3Cl)c(CCC#N)cc2c2c1cc([C@H]1[C@H]3C[C@H](C[C@@H]3OC(F)F)N1C(=O)C1CC1)n2[C@H]1[C@H]2CN[C@@H]1C2` (atropisomer, axis not shown; (Ra)) [Example 7, 3-((Ra)-1-((1R,4R,5S)-2-Azabicyclo[2.1.1]hexan-5-yl)-2-((1R,3R,4R,5S)-2-(cyclopropanecarbonyl)-5-(difluoromethoxy)-2-azabicyclo[2.2.1]heptan-3-yl)-7-(2,3-dichlorophenyl)-6-fluoro-4-methyl-1H-pyrrolo[3,2-c]quinolin-8-yl)propanenitrile], the IC50 on KRAS G12D and on KRAS G12V was at most 100 nM each time.
For `Cc1nc2c(F)c(-c3cccc(Cl)c3Cl)c(CCC#N)cc2c2c1cc([C@H]1[C@H]3C[C@H](C[C@@H]3C(F)F)N1C(=O)C1CC1)n2[C@H]1[C@H]2CN[C@@H]1C2` (atropisomer, axis not shown; (Ra)) [Example 9, 3-((Ra)-1-((1R,4R,5S)-2-Azabicyclo[2.1.1]hexan-5-yl)-2-((1R,3R,4S,5S)-2-(cyclopropanecarbonyl)-5-(difluoromethyl)-2-azabicyclo[2.2.1]heptan-3-yl)-7-(2,3-dichlorophenyl)-6-fluoro-4-methyl-1H-pyrrolo[3,2-c]quinolin-8-yl)propanenitrile], the IC50 on KRAS G12D and at KRAS G12V was at most 100 nM throughout.
Consider `Cc1nc2c(F)c(-c3cccc(Cl)c3Cl)c(CCC#N)cc2c2c1cc([C@H]1[C@H]3C[C@H](C[C@@H]3OC(F)F)N1C(=O)C1(F)CC1)n2[C@H]1[C@H]2CN[C@@H]1C2` [Example 35, 3-(1-((1R,4R,5S)-2-Azabicyclo[2.1.1]hexan-5-yl)-7-(2,3-dichlorophenyl)-2-((1R,3R,4R,5S)-5-(difluoromethoxy)-2-(1-fluorocyclopropane-1-carbonyl)-2-azabicyclo[2.2.1]heptan-3-yl)-6-fluoro-4-methyl-1H-pyrrolo[3,2-c]quinolin-8-yl)propanenitrile], for which the IC50 at KRAS G12D was at most 100 nM.
